Measurements: ChEMBL document CHEMBL1955806, “Design, synthesis, single-crystal and preliminary antitumor activity of novel arenesulfonylimidazolidin-2-ones” (2012)

Assays:
Type in all cases: functional
CAKI-1 = test: Growth inhibition of human CAKI-1 cells at 10 uM after 48 hrs by sulforhodamine B assay; conditions: CAKI-1, 48 h, read-out: GI
HCC 2998 = test: Growth inhibition of human HCC2998 cells at 10 uM after 48 hrs by sulforhodamine B assay; conditions: HCC 2998, 48 h, read-out: GI
MOLT-4 = test: Growth inhibition of human MOLT4 cells at 10 uM after 48 hrs by sulforhodamine B assay; conditions: MOLT-4, 48 h, read-out: GI
SNB-75 = test: Growth inhibition of human SNB75 cells at 10 uM after 48 hrs by sulforhodamine B assay; conditions: SNB-75, 48 h, read-out: GI
PC-3 = test: Growth inhibition of human PC3 cells at 10 uM after 48 hrs by sulforhodamine B assay; conditions: PC-3, 48 h, read-out: GI
HT-29 = test: Growth inhibition of human HT-29 cells at 10 uM after 48 hrs by sulforhodamine B assay; conditions: HT-29, 48 h, read-out: GI
OVCAR-3 = test: Growth inhibition of human OVCAR3 cells at 10 uM after 48 hrs by sulforhodamine B assay; conditions: OVCAR-3, 48 h, read-out: GI
OVCAR-4 = test: Growth inhibition of human OVCAR4 cells at 10 uM after 48 hrs by sulforhodamine B assay; conditions: OVCAR-4, 48 h, read-out: GI
HL-60(TB) = test: Growth inhibition of human HL-60(TB) cells at 10 uM after 48 hrs by sulforhodamine B assay; conditions: HL-60, 48 h, read-out: GI
COLO 205 = test: Growth inhibition of human COLO205 cells at 10 uM after 48 hrs by sulforhodamine B assay; conditions: COLO 205, 48 h, read-out: GI
BT-549 = test: Growth inhibition of human BT549 cells at 10 uM after 48 hrs by sulforhodamine B assay; conditions: BT-549, 48 h, read-out: GI
OVCAR-5 = test: Growth inhibition of human OVCAR5 cells at 10 uM after 48 hrs by sulforhodamine B assay; conditions: OVCAR-5, 48 h, read-out: GI
NCI-H23 = test: Growth inhibition of human NCI-H23 cells at 10 uM after 48 hrs by sulforhodamine B assay; conditions: NCI-H23, 48 h, read-out: GI
SF-539 = test: Growth inhibition of human SF539 cells at 10 uM after 48 hrs by sulforhodamine B assay; conditions: SF-539, 48 h, read-out: GI
HCT-116 = test: Growth inhibition of human HCT116 cells at 10 uM after 48 hrs by sulforhodamine B assay; conditions: HCT-116, 48 h, read-out: GI
A549 = test: Growth inhibition of human A549/ATCC cells at 10 uM after 48 hrs by sulforhodamine B assay; conditions: A549, 48 h, read-out: GI
SW-620 = test: Growth inhibition of human SW620 cells at 10 uM after 48 hrs by sulforhodamine B assay; conditions: SW-620, 48 h, read-out: GI
OVCAR-8 = test: Growth inhibition of human OVCAR8 cells at 10 uM after 48 hrs by sulforhodamine B assay; conditions: OVCAR-8, 48 h, read-out: GI
A498 = test: Growth inhibition of human A498 cells at 10 uM after 48 hrs by sulforhodamine B assay; conditions: A498, 48 h, read-out: GI
M14 = test: Growth inhibition of human M14 cells at 10 uM after 48 hrs by sulforhodamine B assay; conditions: M14, 48 h, read-out: GI
HOP-92 = test: Growth inhibition of human HOP92 cells at 10 uM after 48 hrs by sulforhodamine B assay; conditions: HOP-92, 48 h, read-out: GI
SK-MEL-28 = test: Growth inhibition of human SK-MEL-28 cells at 10 uM after 48 hrs by sulforhodamine B assay; conditions: SK-MEL-28, 48 h, read-out: GI
UACC-257 = test: Growth inhibition of human UACC257 cells at 10 uM after 48 hrs by sulforhodamine B assay; conditions: UACC-257, 48 h, read-out: GI
SF-268 = test: Growth inhibition of human SF268 cells at 10 uM after 48 hrs by sulforhodamine B assay; conditions: SF-268, 48 h, read-out: GI
SK-MEL-5 = test: Growth inhibition of human SK-MEL-5 cells at 10 uM after 48 hrs by sulforhodamine B assay; conditions: SK-MEL-5, 48 h, read-out: GI
NCI-H460 = test: Growth inhibition of human NCI-H460 cells at 10 uM after 48 hrs by sulforhodamine B assay; conditions: NCI-H460, 48 h, read-out: GI
NCI-H522 = test: Growth inhibition of human NCI-H522 cells at 10 uM after 48 hrs by sulforhodamine B assay; conditions: NCI-H522, 48 h, read-out: GI
IGROV-1 = test: Growth inhibition of human IGROV1 cells at 10 uM after 48 hrs by sulforhodamine B assay; conditions: IGROV-1, 48 h, read-out: GI
Hs-578T = test: Growth inhibition of human Hs578T cells at 10 uM after 48 hrs by sulforhodamine B assay; conditions: read-out: GI
RXF 393 = test: Growth inhibition of human RXF393 cells at 10 uM after 48 hrs by sulforhodamine B assay; conditions: RXF 393, 48 h, read-out: GI
K562 = test: Growth inhibition of human K562 cells at 10 uM after 48 hrs by sulforhodamine B assay; conditions: K562, 48 h, read-out: GI
TK-10 = test: Growth inhibition of human TK10 cells at 10 uM after 48 hrs by sulforhodamine B assay; conditions: TK-10, 48 h, read-out: GI
NCI-H226 = test: Growth inhibition of human NCI-H226 cells at 10 uM after 48 hrs by sulforhodamine B assay; conditions: NCI-H226, 48 h, read-out: GI
NCI-H322M = test: Growth inhibition of human NCI-H322M cells at 10 uM after 48 hrs by sulforhodamine B assay; conditions: read-out: GI
SK-MEL-2 = test: Growth inhibition of human SK-MEL-2 cells at 10 uM after 48 hrs by sulforhodamine B assay; conditions: SK-MEL-2, 48 h, read-out: GI
T47D = test: Growth inhibition of human T47D cells at 10 uM after 48 hrs by sulforhodamine B assay; conditions: read-out: GI
CCRF-CEM = test: Growth inhibition of human CCRF-CEM cells at 10 uM after 48 hrs by sulforhodamine B assay; conditions: read-out: GI
SNB-19 = test: Growth inhibition of human SNB19 cells at 10 uM after 48 hrs by sulforhodamine B assay; conditions: SNB-19, 48 h, read-out: GI
LOX IMVI = test: Growth inhibition of human LOXIMVI cells at 10 uM after 48 hrs by sulforhodamine B assay; conditions: read-out: GI

Question: With `CO[C@@H]1[C@@H](OC)N(S(=O)(=O)c2ccc(Cl)cc2)C(=O)N1S(=O)(=O)c1ccc(Cl)cc1` (relative stereo) as the compound, how does the inhibition of growth at 10 µM (CAKI-1) read?
Answer: 67.5%

Question: What about the inhibition of growth at 10 µM (HCC 2998) of the same compound?
Answer: 5.43%

Question: And the inhibition of growth at 10 µM (MOLT-4)?
Answer: 43.5%

Question: And the inhibition of growth at 10 µM (SNB-75)?
Answer: 19.7%

Question: And the inhibition of growth at 10 µM (PC-3)?
Answer: 29.8%

Question: What about the inhibition of growth at 10 µM (HT-29) of the same compound?
Answer: 16%

Question: And the inhibition of growth at 10 µM (OVCAR-3)?
Answer: -4.48%

Question: And the inhibition of growth at 10 µM (OVCAR-4)?
Answer: 21.3%

Question: And the inhibition of growth at 10 µM (HL-60(TB))?
Answer: 3.82%

Question: What about the inhibition of growth at 10 µM (COLO 205) of the same compound?
Answer: -3.4%

Question: What about the inhibition of growth at 10 µM (BT-549) of the same compound?
Answer: 2.35%

Question: And the inhibition of growth at 10 µM (OVCAR-5)?
Answer: 8.25%

Question: And the inhibition of growth at 10 µM (NCI-H23)?
Answer: 8.09%

Question: And the inhibition of growth at 10 µM (SF-539)?
Answer: -15.2%

Question: What about the inhibition of growth at 10 µM (HCT-116) of the same compound?
Answer: 33.1%

Question: What about the inhibition of growth at 10 µM (A549) of the same compound?
Answer: 21.7%

Question: And the inhibition of growth at 10 µM (SW-620)?
Answer: 1.4%

Question: What about the inhibition of growth at 10 µM (OVCAR-8) of the same compound?
Answer: 9.39%

Question: And the inhibition of growth at 10 µM (A498)?
Answer: 4.59%

Question: What about the inhibition of growth at 10 µM (M14) of the same compound?
Answer: 6.23%

Question: What about the inhibition of growth at 10 µM (HOP-92) of the same compound?
Answer: 49.9%

Question: What about the inhibition of growth at 10 µM (SK-MEL-28) of the same compound?
Answer: -7.4%

Question: What about the inhibition of growth at 10 µM (UACC-257) of the same compound?
Answer: -11.6%

Question: What about the inhibition of growth at 10 µM (SF-268) of the same compound?
Answer: 1.84%

Question: What about the inhibition of growth at 10 µM (SK-MEL-5) of the same compound?
Answer: -2.95%

Question: And the inhibition of growth at 10 µM (NCI-H460)?
Answer: -1.36%

Question: What about the inhibition of growth at 10 µM (NCI-H522) of the same compound?
Answer: 26.7%

Question: What about the inhibition of growth at 10 µM (IGROV-1) of the same compound?
Answer: 23.1%

Question: What about the inhibition of growth at 10 µM (Hs-578T) of the same compound?
Answer: -4.94%

Question: What about the inhibition of growth at 10 µM (RXF 393) of the same compound?
Answer: -11.5%

Question: What about the inhibition of growth at 10 µM (K562) of the same compound?
Answer: 23.2%

Question: And the inhibition of growth at 10 µM (TK-10)?
Answer: 7.51%

Question: And the inhibition of growth at 10 µM (NCI-H226)?
Answer: 4.24%

Question: What about the inhibition of growth at 10 µM (NCI-H322M) of the same compound?
Answer: 14.7%

Question: What about the inhibition of growth at 10 µM (SK-MEL-2) of the same compound?
Answer: 13.1%

Question: What about the inhibition of growth at 10 µM (T47D) of the same compound?
Answer: 9.2%

Question: What about the inhibition of growth at 10 µM (CCRF-CEM) of the same compound?
Answer: 15.5%

Question: And the inhibition of growth at 10 µM (SNB-19)?
Answer: 2.72%

Question: And the inhibition of growth at 10 µM (LOX IMVI)?
Answer: 5.58%
